Measurements from patent US7880007B2, “Bicyclic substituted phenyl piperidine modulators of muscarinic receptors” (Vertex Pharmaceuticals Incorporated, priority 2004, dated 2011).

What was measured:
Assay type in all cases: cell-based
[1] = biological target: T1, M4 muscarinic receptor (Homo sapiens, UniProt P08173); assay: Functional mobilization of intracellular calcium (FLIPR), M4-CHO cells; conditions: for M4 Activity: M4-CHO cells, calcium mobilization (FLIPR)
T1 construct: expressed in transfected cells; host or cells: CHO (M4-CHO)
T1 sequence (P08173 1-479): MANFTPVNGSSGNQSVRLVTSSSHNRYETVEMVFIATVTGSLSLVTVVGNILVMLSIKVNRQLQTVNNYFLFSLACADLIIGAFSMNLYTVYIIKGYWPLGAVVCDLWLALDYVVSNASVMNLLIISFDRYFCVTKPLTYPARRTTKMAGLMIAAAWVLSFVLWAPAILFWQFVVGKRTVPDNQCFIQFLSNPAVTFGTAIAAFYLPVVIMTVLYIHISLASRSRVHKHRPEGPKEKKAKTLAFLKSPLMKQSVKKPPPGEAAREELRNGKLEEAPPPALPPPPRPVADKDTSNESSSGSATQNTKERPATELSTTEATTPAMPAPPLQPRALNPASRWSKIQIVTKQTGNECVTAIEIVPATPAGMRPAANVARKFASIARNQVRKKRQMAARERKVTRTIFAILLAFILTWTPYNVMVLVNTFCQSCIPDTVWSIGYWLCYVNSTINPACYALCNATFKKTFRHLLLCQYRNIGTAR
In short: (§1)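 FLIPR fluorescence (ex 488, em 540 nm) recorded 60 sec after compound addition to dye-loaded CHO cells. Agonist mode: compound alone. Antagonist mode: 15 min compound pre-incubation, then carbachol at EC80, or co-application. Efficacy expressed as % of maximal carbachol response.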

[2] = biological target: T2, M3 muscarinic receptor (Homo sapiens, UniProt P20309); assay: Functional mobilization of intracellular calcium (FLIPR), M3-CHO cells; conditions: for M3 Activity: M3-CHO cells, calcium mobilization (FLIPR)
T2 construct: expressed in transfected cells; host or cells: CHO (M3-CHO)
Description: Functional Mobilization of Intracellular Calcium to Determine Muscarinic Receptor Activity:
CHO cells expressing muscarinic receptors (M1 to M5) are grown as monolayers in tissue culture flasks at 37° C. in a humidified atmosphere containing 5% CO2 and passaged every 3-5 days. The growth media is Dulbecco's modified eagles medium (DMEM, Gibco Cat #12430-054), containing 25 mM Hepes and supplemented with Fetal Bovine Serum (Hyclone, cat #SH30071.03), 0.1 mM of MEM non-essential amino acids (GIBCO, Cat #11140-050), 1 mM MEM Sodium Pyruvate (GIBCO Cat #11360-070) and 100 units/ml of Penicillin G and 100 μg/ml of Streptomycin (GIBCO Cat #15140-122). The recombinant muscarinic receptor cell lines are grown under antibiotic pressure with media containing 25 μg/ml zeocin and 500 μg/ml G418 (M1-CHO), 4 μg/ml puromycin, 50 μg/ml zeocin and 2.5 μg/ml blasticidin (M2 and M4-CHO) or 50 μg/ml zeocin and 4 μg/ml puromycin (M3 and M5-CHO).
Cells are harvested at 80-90% confluence using Versene (GIBCO Cat #15040-066), collected by centrifugation and seeded 18-24 hrs prior to running the calcium assay at a density of 5,000-10,000 cells/well in […], clear-bottomed 384-well plates (BD Biocoat, poly-D-lysine, Cat #356663). The day of the experiment, the cells are washed with a plate washer (Bioteck Instruments, ELX 405) using bath 1 buffer (140-mM NaCl, 4.5-mM KCl, 2-mM CaCl2, 1-mM MgCl2, 10-mM Hepes-Na, 10-mM Glucose, pH 7.4, with NaOH) containing 1 mM Probenecid. Next, the calcium dye Fluo-3 (25 μl/well of Fluo-3 AM at 4 μM, Molecular Probes F-1241, in Bath 1 buffer containing 1 mM Probenecid) is added to the 25 μl of Bath 1 remaining in each well after the plate wash and the dye is loaded at 37° C. in the tissue culture incubator for 60-90 min. The fluorescent dye is removed using the plate washer with Bath 1 containing 1 mM Probenecid, leaving 25 μl/well of this solution after the wash. Alternatively, cells can be loaded with the calcium indicator from Molecular Devices (Calcium 3 Assay Reagents, Cat #R7181) adding 5 μl of a 5× solution dye in Bath 1 containing 1 mM Probenecid (10 ml per dye flask cat #R7182 to generate a solution 20×) to 20 μl of the same buffer. After loading for 60 min, the experiment can be run without having to remove the dye.
Compounds are prepared at a 2× fold concentration in a 96-well plate (round bottom, Costar Corning cat #3656), by reconstituting the pre-spotted compounds in bath 1 containing 1 mM probenecid. The final concentration DMSO is 0.5%, and the amount of DMSO is normalized across the assay plate. To determine an agonist action of the compounds on muscarinic receptors, the reconstituted compounds are added (25 μl compound/well) to the cell assay plate (containing 25 μl/well) using the multi-channel robotic system of the FLIPR 3 Instrument (Molecular Devices, Sunnyvale, Calif.). To determine a functional inhibitory action of the compounds on muscarinic receptors, the reconstituted compounds are added (25 μl compound/well) to the assay plate and pre-incubated for 15 min prior to adding 25 μl of Carbachol at 3× the EC80 for each muscarinic subtype. Alternatively, the compounds can be co-applied simultaneously with the agonist. In both assay modes, the fluorescence is recorded for 60 sec (excitation wavelength is […] and emission wavelength 540 nm) using the FLIPR 3 instrument.
The potency, efficacy and selectivity of the muscarinic compounds were evaluated by screening the compound activity across the whole family (M1 to M5 cells). Compounds were also screened for activity on other proteins such as other GPCRs and ion channels to determine selectivity on M4 receptors.
Examples of activities and efficacies of the muscarinic compounds of formulae (I, Ia, Ib, and II) on modulating M1, M2, M3 and M4 receptors are shown below in Table 3. […]

[3] = biological target: T3, M2 muscarinic receptor (Homo sapiens, UniProt P08172); assay: Functional mobilization of intracellular calcium (FLIPR), M2-CHO cells; conditions: for M2 Activity: M2-CHO cells, calcium mobilization (FLIPR)
T3 construct: expressed in transfected cells; host or cells: CHO (M2-CHO)
T3 sequence (P08172 1-466): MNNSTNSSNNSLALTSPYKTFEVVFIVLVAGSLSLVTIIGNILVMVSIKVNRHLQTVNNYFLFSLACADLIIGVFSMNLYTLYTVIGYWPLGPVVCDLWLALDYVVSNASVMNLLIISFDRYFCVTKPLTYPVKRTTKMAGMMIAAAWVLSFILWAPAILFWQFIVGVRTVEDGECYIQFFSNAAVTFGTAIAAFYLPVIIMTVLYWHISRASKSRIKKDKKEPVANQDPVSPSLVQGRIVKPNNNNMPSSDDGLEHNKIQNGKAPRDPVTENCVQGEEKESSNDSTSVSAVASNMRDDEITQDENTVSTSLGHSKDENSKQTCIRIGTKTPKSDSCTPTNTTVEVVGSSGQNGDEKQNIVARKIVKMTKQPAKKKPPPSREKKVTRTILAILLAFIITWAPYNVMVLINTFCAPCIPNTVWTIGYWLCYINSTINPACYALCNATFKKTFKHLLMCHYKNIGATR
In short: as §1

[4] = biological target: T4, M1 muscarinic receptor (Homo sapiens, UniProt P11229); assay: Functional mobilization of intracellular calcium (FLIPR), M1-CHO cells; conditions: for M1 Activity: M1-CHO cells, calcium mobilization (FLIPR)
T4 construct: expressed in transfected cells; host or cells: CHO (M1-CHO)
T4 sequence (P11229 1-460): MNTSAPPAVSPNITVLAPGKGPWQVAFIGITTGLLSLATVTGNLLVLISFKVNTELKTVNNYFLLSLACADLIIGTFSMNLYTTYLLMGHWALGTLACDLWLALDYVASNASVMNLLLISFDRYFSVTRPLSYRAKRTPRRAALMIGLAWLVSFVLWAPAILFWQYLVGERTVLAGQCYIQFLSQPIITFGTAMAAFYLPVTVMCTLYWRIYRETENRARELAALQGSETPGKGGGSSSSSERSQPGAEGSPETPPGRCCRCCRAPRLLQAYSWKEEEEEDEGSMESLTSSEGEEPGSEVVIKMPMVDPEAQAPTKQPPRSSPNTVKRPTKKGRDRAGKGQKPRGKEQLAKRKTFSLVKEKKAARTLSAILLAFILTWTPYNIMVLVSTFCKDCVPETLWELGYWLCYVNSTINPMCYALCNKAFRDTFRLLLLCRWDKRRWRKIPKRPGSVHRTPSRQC
In short: as §1

[5] = 100% efficacy = maximum response obtained with the Carbachol control
[6] = 100% efficacy is the maximum response obtained with the Carbachol control

T2 sequence (P20309 whole entry): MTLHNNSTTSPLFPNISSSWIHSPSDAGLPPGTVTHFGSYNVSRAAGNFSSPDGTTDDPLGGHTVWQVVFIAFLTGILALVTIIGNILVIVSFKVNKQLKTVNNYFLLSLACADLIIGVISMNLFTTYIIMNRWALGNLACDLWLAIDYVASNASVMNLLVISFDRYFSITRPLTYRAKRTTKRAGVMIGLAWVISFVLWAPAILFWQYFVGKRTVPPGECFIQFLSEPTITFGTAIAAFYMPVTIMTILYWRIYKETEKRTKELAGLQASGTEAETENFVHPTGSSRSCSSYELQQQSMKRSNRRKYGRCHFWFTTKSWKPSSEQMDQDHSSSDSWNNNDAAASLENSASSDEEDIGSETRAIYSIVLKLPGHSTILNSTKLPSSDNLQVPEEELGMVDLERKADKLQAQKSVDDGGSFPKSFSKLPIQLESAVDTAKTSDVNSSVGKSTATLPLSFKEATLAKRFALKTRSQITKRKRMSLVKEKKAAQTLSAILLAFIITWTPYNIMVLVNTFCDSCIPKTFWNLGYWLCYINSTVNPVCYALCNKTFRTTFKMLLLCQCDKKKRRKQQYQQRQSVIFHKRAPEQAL

Row | Structure (SMILES) | Emax [1, 5] [%] | Emax [2, 5] [%] | Emax [3, 5] [%] | Emax [4, 5] [%] | M4 Activity [1] | M3 Activity [2] | M2 Activity [3] | M1 Activity [4] | Emax [1, 6] [%] | Emax [2, 6] [%] | Emax [3, 6] [%] | Emax [4, 6] [%]
1 | CC(=O)COc1ccccc1C1CCN(C2CC3CC[C@H]2C3)CC1 (stereo in doubt) [Compound 53, 1-(2-(1-((1S,2R,4R)-bicyclo[2.2.1]heptan-2-yl)piperidin-4-yl)phenoxy)propan-2-one] | 25 to 100 | < 25 | 25 to 100 | 25 to 100 | – | – | – | – | – | – | – | –
2 | COc1ccc(C#Cc2ccccc2)cc1C1CCN(C2CC3CC[C@H]2C3)CC1 (stereo in doubt) [Compound 64, 1-((1S,2R,4R)-bicyclo[2.2.1]heptan-2-yl)-4-(2-methoxy-5-(phenyl-ethynyl)phenyl)piperidine] | 25 to 100 | < 25 | 25 to 100 | 25 to 100 | ++ (activity was measured to be from 1.0 μM to 5.0 μM) | + (activity was measured to be greater than 5.0 μM) | + (activity was measured to be greater than 5.0 μM) | + (activity was measured to be greater than 5.0 μM) | – | – | – | –
3 | COc1ccc(C(=O)C(C)C)cc1C1CCN(C2CC3CC[C@H]2C3)CC1 (stereo in doubt) [Compound 222, 1-(3-(1-((1S,2R,4R)-bicyclo[2.2.1]heptan-2-yl)piperidin-4-yl)-4-methoxyphenyl)-2-methylpropan-1-one] | < 25 | < 25 | < 25 | 25 to 100 | – | – | – | – | – | – | – | –
4 | Oc1ccccc1C1CCN(C2CC3CC[C@H]2C3)CC1 (stereo in doubt) [Compound 229, 2-(1-((1S,2R,4R)-bicyclo[2.2.1]heptan-2-yl)piperidin-4-yl)phenol] | 25 to 100 | < 25 | < 25 | 25 to 100 | ++ (activity was measured to be from 1.0 μM to 5.0 μM) | + (activity was measured to be greater than 5.0 μM) | + (activity was measured to be greater than 5.0 μM) | ++ (activity was measured to be from 1.0 μM to 5.0 μM) | – | – | – | –
5 | COc1ccccc1C1CCN(C2CC3CC[C@H]2C3)CC1 (stereo in doubt) [Compound 397, 1-((1S,2R,4R)-bicyclo[2.2.1]heptan-2-yl)-4-(2-methoxyphenyl)piperidine] | – | – | – | – | +++ (activity was measured to be less than 1.0 μM) | + (activity was measured to be greater than 5.0 μM) | + (activity was measured to be greater than 5.0 μM) | ++ (activity was measured to be from 1.0 μM to 5.0 μM) | 25 to 100 | < 25 | < 25 | 25 to 100
6 | COc1ccccc1C1CCN(CC2CCCOC2)CC1 (stereo not shown) [Compound 2] | 25 to 100 | < 25 | < 25 | 25 to 100 | ++ (activity was measured to be from 1.0 μM to 5.0 μM) | + (activity was measured to be greater than 5.0 μM) | + (activity was measured to be greater than 5.0 μM) | + (activity was measured to be greater than 5.0 μM) | – | – | – | –
7 | COc1ccc(C(=O)C2CC2)cc1C1CCN([C@H]2C[C@H]3CC[C@H]2C3)CC1 [Compound 3] | < 25 | < 25 | < 25 | < 25 | + (activity was measured to be greater than 5.0 μM) | + (activity was measured to be greater than 5.0 μM) | + (activity was measured to be greater than 5.0 μM) | + (activity was measured to be greater than 5.0 μM) | – | – | – | –
8 | COc1cc(F)ccc1C1CCN([C@H]2C[C@H]3CC[C@H]2C3)CC1 [Compound 4] | 25 to 100 | < 25 | < 25 | 25 to 100 | +++ (activity was measured to be less than 1.0 μM) | + (activity was measured to be greater than 5.0 μM) | + (activity was measured to be greater than 5.0 μM) | + (activity was measured to be greater than 5.0 μM) | – | – | – | –
9 | COc1ccc(F)cc1C1(F)CCN(C[C@@H]2C[C@H]3C=C[C@H]2C3)CC1 [Compound 5] | 25 to 100 | < 25 | 25 to 100 | 25 to 100 | +++ (activity was measured to be less than 1.0 μM) | + (activity was measured to be greater than 5.0 μM) | + (activity was measured to be greater than 5.0 μM) | + (activity was measured to be greater than 5.0 μM) | – | – | – | –
